Measurements: US20150344444A1, “BET-PROTEIN-INHIBITING DIHYDROXYQUINOXALINONES” (BAYER PHARMA AKTIENGESELLSCHAFT, priority 2012, published 2015)

How the values were obtained:
[1] = target: T1, BRD4 Bromo Domain 2 [BRD4(2)] (Homo sapiens, UniProt O60885); assay: BRD4(2)/acetylated peptide H4 binding assay (TR-FRET); conditions: inhibition of interaction between His6-tagged BRD4(2) (amino acids 357-445) and acetylated histone H4 peptide
T1 construct: N-terminally His6-tagged BRD4(2) (amino acids 357-445); made in house; host or cells: E. coli
Excerpt: Protein-Protein Interaction Assay: BRD4/Acetylated Peptide H4 Binding Assay
2. Assay Description for BRD4 Bromo Domain 2 [BRD4(2)]
To assess the BRD4(2) binding strength of the substances described in this application, the ability thereof to inhibit the interaction between BRD4(2) and acetylated histone H4 in a dose-dependent manner was quantified.
For this purpose, a time-resolved fluorescence resonance energy transfer (TR-FRET) assay was used, which measures the binding between N-terminally His6-tagged BRD4(2) (amino acids 357-445) and a synthetic acetylated histone H4 (Ac-H4) peptide with sequence SGRGK(Ac)GGK(Ac)GLGK(Ac)GGAK(Ac)RHRKVLRDNGSGSK-biotin. The recombinant BRD4(2) protein produced in house according to Filippakopoulos et al., Cell, 2012, 149:214-231 was expressed in E. coli and purified by means of (Ni-NTA) affinity and (Sephadex G-75) size exclusion chromatography. The Ac-H4 peptide can be purchased, for example, from Biosyntan (Berlin, Germany).
In the assay, typically 11 different concentrations of each substance (0.1 nM, 0.33 nM, 1.1 nM, 3.8 nM, 13 nM, 44 nM, 0.15 μM, 0.51 μM, 1.7 μM, 5.9 μM and 20 μM) were analysed as duplicates on the same microtitre plate. For this purpose, 100-fold concentrated solutions in DMSO were prepared by serial dilutions (1:3.4) of a 2 mM stock solution into a clear, 384-well microtitre plate (Greiner Bio-One, Frickenhausen, Germany). From this, 50 nl were transferred into a black test plate (Greiner Bio-One, Frickenhausen, Germany). The test was started by the addition of 2 μl of a 2.5-fold concentrated BRD4(2) solution (final concentration typically 100 nM in the 5 μl of reaction volume) in aqueous assay buffer [50 mM HEPES pH 7.5, 50 mM sodium chloride (NaCl); 50 mM potassium fluoride (KF); 0.25 mM CHAPS and 0.05% serum albumin (BSA)] to the substances in the test plate. This was followed by a 10-minute incubation step at 22° C. for the pre-equilibration of putative complexes between BRD4(2) and the substances.
The mixture was then incubated in the dark at 22° C. for one hour and then at 4° C. for at least 3 hours and for no longer than overnight. The formation of BRD4(2)/Ac-H4 complexes was determined by the measurement of the resonance energy transfer from the streptavidin-Eu chelate to the anti-6His-XL665 antibody present in the reaction. For this purpose, the fluorescence emission was measured at 620 nm and 665 nm after excitation at 330-350 nm in a TR-FRET measuring instrument, for example a Rubystar or Pherastar (both from BMG Lab Technologies, Offenburg, Germany) or a Viewlux (Perkin-Elmer). The ratio of the emissions at 665 nm and at 622 nm was taken as an indicator of the amount of BRD4(2)/Ac-H4 complexes formed.
The data (ratios) obtained were normalized, with 0% inhibition corresponding to the mean from the measurements for a set of controls (typically 32 data points) in which all the reagents were present. In these, in place of test substances, 50 nl of DMSO (100%) were used Inhibition of 100% corresponded to the mean from the measurements for a set of controls (typically 32 data points) in which all the reagents except BRD4(2) were present. The IC50 was determined by regression analysis based on a 4-parameter equation (minimum, maximum, IC50, Hill; Y=max+(min−max)/(1+(X/IC50)Hill)).

[2] = test system: MOLM-13 cells; assay: MOLM-13 cell proliferation assay (alamarBlue); type: cell-based; conditions: inhibition of cell proliferation, 96 hours, human AML cell line
Method: (§1) In accordance with the invention, the ability of the substances to inhibit cell proliferation was determined Cell viability was determined by means of the alamarBlue® reagent (Invitrogen) in a Victor X3 Multilabel Reader (Perkin Elmer). The excitation wavelength was 530 nm and the emission wavelength […].
The MOLM-13 cells (DSMZ, ACC 554) were sown at a concentration of 4000 cells/well in 100 μl of growth medium (RPMI1640, 10% FCS) on 96-well microtitre plates.
(§2) After overnight incubation at 37° C., the fluorescence values were determined (CI values). Then the plates were treated with various substance dilutions (1E-5 M, 3E-6 M, 1E-6 M, 3E-7 M, 1E-7 M, 3E-8 M, 1E-8 M) and incubated at 37° C. over 96 hours (MOLM-13, B16F10 cells) or 120 hours (MOLP-8 cells). Subsequently, the fluorescence values were determined (CO values). For the data analysis, the CI values were subtracted from the CO values and the results were compared between cells which had been treated with various dilutions of the substance or only with buffer solution. The IC50 values (substance concentration needed for 50% inhibition of cell proliferation) were calculated therefrom.
MOLM-13 human AML (acute myeloid leukaemia) cell line

[3] = test system: MOLP-8 cells; assay: MOLP-8 cell proliferation assay (alamarBlue); type: cell-based; conditions: inhibition of cell proliferation, 120 hours, human multiple myeloma cell line
Method: as §1
The MOLP-8 cells (DSMZ, ACC 569) were sown at a concentration of 4000 cells/well in 100 μl of growth medium (RPMI1640, 20% FCS) on 96-well microtitre plates.
as §2
MOLP-8 human multiple myeloma cell line

Compound	IC50 [1] [nM]	IC50 [2] [nM]	IC50 [3] [nM]
COc1ccc(CN2c3cc(Nc4ccc(S(=O)(=O)N5CCOCC5)cc4)ccc3N(C)C(=O)[C@H]2C)cc1 [Example 42, (3R)-4-(4-methoxybenzyl)-1,3-dimethyl-6-{[4-(morpholin-4-ylsulphonyl)phenyl]amino}-3,4-dihydroquinoxalin-2(1H)-one]	68	149	61
COc1ccc(CN2c3cc(Nc4ccc(C(=O)NCC5COC5)cc4)ccc3N(C)C(=O)[C@H]2C)cc1 [Example 19, 4-{[(3R)-4-(4-methoxybenzyl)-1,3-dimethyl-2-oxo-1,2,3,4-tetrahydroquinoxalin-6-yl]amino}-N-(oxetan-3-ylmethyl)benzamide]	110	335	124
C[C@@H]1C(=O)N(C)c2ccc(Nc3ccc(C(=O)NC4CC4)cc3)cc2N1C1CCOCC1 [Example 35, N-cyclopropyl-4-{[(3R)-1,3-dimethyl-2-oxo-4-(tetrahydro-2H-pyran-4-yl)-1,2,3,4-tetrahydroquinoxalin-6-yl]amino}benzamide]	217	2480	1390
C[C@@H]1C(=O)N(C)c2ccc(Nc3ccc(S(=O)(=O)N4CCN(C)CC4)cc3)cc2N1Cc1ccccc1 [Example 15, (3R)-4-benzyl-1,3-dimethyl-6-({4-[(4-methylpiperazin-1-yl)sulphonyl]phenyl}amino)-3,4-dihydroquinoxalin-2(1H)-one]	51	90	109
CC(=O)N1CCC(NC(=O)c2ccc(Nc3ccc4c(c3)N(C3CCOCC3)[C@H](C)C(=O)N4C)cc2)CC1 [Example 32, N-(1-acetylpiperidin-4-yl)-4-{[(3R)-1,3-dimethyl-2-oxo-4-(tetrahydro-2H-pyran-4-yl)-1,2,3,4-tetrahydroquinoxalin-6-yl]amino}benzamide]	482	3450	2580
COc1ccc(CN2c3cc(Nc4ccc(S(=O)(=O)N5CCN(C)CC5)cc4)ccc3N(C)C(=O)[C@H]2C)cc1 [Example 43, (3R)-4-(4-methoxybenzyl)-1,3-dimethyl-6-({4-[(4-methylpiperazin-1-yl)sulphonyl]phenyl}amino)-3,4-dihydroquinoxalin-2(1H)-one]	54	145	35
C[C@@H]1C(=O)N(C)c2ccc(Nc3ccc(C(=O)NC4CC4)cc3)cc2N1C1CCCC1 [Example 2, 4-{[(3R)-4-cyclopentyl-1,3-dimethyl-2-oxo-1,2,3,4-tetrahydroquinoxalin-6-yl]amino}-N-cyclopropylbenzamide]	222	811	727
CC(C)N1CCN(C(=O)c2ccc(Nc3ccc4c(c3)N(C3CCOCC3)[C@H](C)C(=O)N4C)cc2)CC1 [Example 33]	383	1050	509
C[C@@H]1C(=O)N(C)c2ccc(Nc3ccc(C(=O)NC4CC4)cc3)cc2N1Cc1ccccc1 [Example 10, 4-{[(3R)-4-benzyl-1,3-dimethyl-2-oxo-1,2,3,4-tetrahydroquinoxalin-6-yl]amino}-N-cyclopropylbenzamide]	64	527	260
C[C@@H]1C(=O)N(C)c2ccc(Nc3ccc(C(=O)NC4CN(C)C4)cc3)cc2N1C1CCOCC1 [Example 34, 4-{[(3R)-1,3-dimethyl-2-oxo-4-(tetrahydro-2H-pyran-4-yl)-1,2,3,4-tetrahydroquinoxalin-6-yl]amino}-N-(1-methylazetidin-3-yl)benzamide]	238	2100	1540
COc1ccc(CN2c3cc(Nc4ccc(C(=O)N5CCN(C(C)C)CC5)cc4)ccc3N(C)C(=O)[C@H]2C)cc1 [Example 22, (3R)-4-(4-methoxybenzyl)-1,3-dimethyl-6-[(4-{[4-(propan-2-yl)piperazin-1-yl]carbonyl}phenyl)amino]-3,4-dihydroquinoxalin-2(1H)-one]	86	261	93
C[C@@H]1C(=O)N(C)c2ccc(Nc3ccc(C(=O)N(C)C)cc3)cc2N1C1CCCC1 [Example 8, 4-{[(3R)-4-cyclopentyl-1,3-dimethyl-2-oxo-1,2,3,4-tetrahydroquinoxalin-6-yl]amino}-N,N-dimethylbenzamide]	171	627	521
C[C@@H]1C(=O)N(C)c2ccc(Nc3ccc(C(=O)N4CCOCC4)cc3)cc2N1C1CCCCCC1 [Example 24, (3R)-4-cycloheptyl-1,3-dimethyl-6-{[4-(morpholin-4-ylcarbonyl)phenyl]amino}-3,4-dihydroquinoxalin-2(1H)-one]	102	967	662
COc1ccc(CN2c3cc(Nc4ccc(S(=O)(=O)N(C)C)cc4)ccc3N(C)C(=O)[C@H]2C)cc1 [Example 41, 4-{[(3R)-4-(4-methoxybenzyl)-1,3-dimethyl-2-oxo-1,2,3,4-tetrahydroquinoxalin-6-yl]amino}-N,N-dimethylbenzenesulphonamide]	48	145	77
C[C@@H]1C(=O)N(C)c2ccc(Nc3ccc(C(=O)N4CC5(CCS5(=O)=O)C4)cc3)cc2N1Cc1ccccc1 [Example 16, (3R)-4-benzyl-6-({4-[(1,1-dioxido-1-thia-6-azaspiro[3.3]hept-6-yl)carbonyl]phenyl}amino)-1,3-dimethyl-3,4-dihydroquinoxalin-2(1H)-one]	97	374	96
C[C@@H]1C(=O)N(C)c2ccc(Nc3ccc(C(=O)NC4CCCC4)cc3)cc2N1C1CCCC1 [Example 1, N-cyclopentyl-4-{[(3R)-4-cyclopentyl-1,3-dimethyl-2-oxo-1,2,3,4-tetrahydroquinoxalin-6-yl]amino}benzamide]	326	1160	1470
COc1ccc(CN2c3cc(Nc4ccc(C(=O)NCCN5CCN(C)CC5)cc4)ccc3N(C)C(=O)[C@H]2C)cc1 [Example 21, 4-{[(3R)-4-(4-methoxybenzyl)-1,3-dimethyl-2-oxo-1,2,3,4-tetrahydroquinoxalin-6-yl]amino}-N-[2-(4-methylpiperazin-1-yl)ethyl]benzamide]	54	275	69
C[C@@H]1C(=O)N(C)c2ccc(Nc3ccc(C(=O)N4CC5(COC5)C4)cc3)cc2N1C1CCOCC1 [Example 29]	158	2270	1120
